Measured values as given in patent publication US20250320562A1, “ALTERNATIVELY SPLICED ISOFORM IN CANCER AND METHODS OF USE THEREOF” (THE CHILDREN'S HOSPITAL OF PHILADELPHIA, priority 2022, published 2025).

Experiments:
[1] = test system: MHHCALL4 cell line; test: 6-MP dose-response in CRISPR/Cas9 NT5C2-KO and NT5ex4a (E4a) KO models, MHHCALL4; format: cell-based
Source text: (§1) FIG. 4: NT5C2 KO in MHHCALL4. (Top left panel) CRISPR/CAS9 strategy for the generation of total NT5C2 or NT5ex4a isoform specific KOs, representing the exons that will be targeted for each model. (Top right panel) Western-Blot of the NT5C2 levels on the parental, NT5C2-KO and NT5ex4a (E4a) KO models in the 697 and MHHCALL4 cell lines.
(§2) Consistent with this biochemical finding, in reconstituted NT5C2low B-ALL cells NT5ex4a conferred the same level of resistance to 6-MP as the variant with the R238W hotspot mutation (2-log difference in IC50). […] Therefore, inclusion of NT5C2 exon 4a phenocopies relapse-specific mutations and could serve as both a valuable predictive biomarker in B-ALL and potentially chronic myelogenous (CML) and acute myeloid leukemia (AML).

[2] = test system: REH cells over-expressing the WT, E4a or R238W NT5C2 isoforms; test: 6-MP chemoresistance in vivo in xenografted B-ALL cells expressing NT5C2 isoforms; set-up: species or system mice; details: xenografted B-ALL cells expressing NT5ex4a
Source text: FIG. 5: NT5C2 E4a alternative isoform in 6-MP resistance. (Left panel) Bioluminescent mouse image of mice engrafted with REH cells over-expressing the WT, E4a or R238W NT5C2 isoforms at different time points. (Right panel) Flux quantification of mice engrafted with REH cells over-expressing the WT, E4a or R238W NT5C2 isoforms at different time points.
as §2

[3] = test system: 697 cell line; test: 6-MP dose-response in CRISPR/Cas9 NT5C2-KO model, 697; format: cell-based
Source text: as §1

[4] = test system: reconstituted NT5C2low B-ALL cells; test: Resistance to 6-MP in reconstituted NT5C2low B-ALL cells expressing NT5C2 isoforms; format: cell-based
Source text: FIGS. 8A-8C: Possible effects of phosphorylation of the NT5C2 activity. (FIG. 8A) Predicted serine and threonine phosphorylation sites in the NT5C2 amino acid sequence. […] (SEQ ID NOS: 5-24) (FIG. 8B) Top ten kinases predicted to phosphorylate the NT5C2 exon NT5ex4a-encoded peptide. (FIG. 8C) Increased pro-survival activity of NT5C2 E4a isoform where the Ser-121 has been replaced by a phosphomimetic aspartic acid (S121D). Compare curves with rectangles and triangles.
as §2
To determine the mechanism underlying the pro-survival activity of the NT5C2 E4a isoform, it was considered that it might be phosphorylated. Indeed, the application of predictive algorithms identified serine at position 121 as the residue in exon NT5ex4a most likely to be phosphorylated (FIG. 8A). Based on the amino acid context, it most strongly resembles consensus sites for kinases of the AGC, CAMK, and PIKK families. The latter includes such important cancer-related kinases as ATR and ATM (FIG. 8B). […]

[5] = test system: B-ALL cells expressing NT5ex4a; test: In vitro sensitivity to mizoribine of cells expressing the non-canonical NT5C2 isoform; format: cell-based; details: expression of the non-canonical isoform NT5ex4a
Source text: FIG. 6: Mizoribine specifically blocks the […], adding extra pressure in NT5C2 hyperactive cells (Dieck et al., Blood, 2019). (Left panel) Mechanism of action of 6-MP and 6-TG purine analogs. (Right panel) Effects of NT5C2 activating-mutations on purine bases synthesis and degradation.
as §2

| difference in IC50 (resistance to 6-MP) ([4]; NT5ex4a, same level of resistance as the R238W hotspot mutation variant, compared to the canonical isoform) [log] | Compound | cell survival in the presence of 6-MP ([1]; CRISPR/Cas9 engineered NT5ex4a KO cells) | sensitivity to 6-MP treatment (dose-response plots) ([1]; E4a-KO, E4a-high expression MHHCALL4) | sensitivity to 6-MP treatment (dose-response plots) ([1]; NT5C2-KO, MHHCALL4) | chemoresistance in vivo [2] | sensitivity to 6-MP treatment (dose-response plots) [3] | survival in the presence of 6-MP ([4]; E4a isoform with Ser-121 replaced by aspartic acid (S121D) versus parental E4a or the alanine derivative) | sensitivity to mizoribine [5] |
| --- | --- | --- | --- | --- | --- | --- | --- | --- |
| 2 | S=c1nc[nH]c2nc[nH]c12 [6-MP, mercaptopurine] | reduced cell survival | increased sensitivity | increased sensitivity | chemoresistance in vivo was further confirmed | increased sensitivity | stronger survival advantages |  |
|  | NC(=O)c1ncn([C@@H]2O[C@H](CO)[C@@H](O)[C@H]2O)c1O [mizoribine, 4-carbamoyl-1-β-d-ribofuranosyl imirdozolium] |  |  |  |  |  |  | collateral sensitivity |
